Reference: article PMC10709440, “High-throughput ligand profile characterization in novel cell lines expressing seven heterologous insect olfactory receptors for the detection of volatile plant biomarkers” (Scientific Reports, 2023)
Where two headings read alike, the source gives them in different places.

Key:
[1] = target: OR85b receptor; settings: cited from earlier work
[2] = target: T1, Drosophila OR98a (Drosophila melanogaster, UniProt Q9VAZ3); test: cell-based; set-up: GCaMP6 calcium fluorescence in stable HEK293 OR+ORCO lines; peak dF normalised to 50 uM VUAA1 (=1); settings: HEK293; relative to 50 uM VUAA1 response; below 0.05 set to 0; read-out: % activation
T1 construct: expressed in transfected cells
T1 sequence (Q9VAZ3 1-397): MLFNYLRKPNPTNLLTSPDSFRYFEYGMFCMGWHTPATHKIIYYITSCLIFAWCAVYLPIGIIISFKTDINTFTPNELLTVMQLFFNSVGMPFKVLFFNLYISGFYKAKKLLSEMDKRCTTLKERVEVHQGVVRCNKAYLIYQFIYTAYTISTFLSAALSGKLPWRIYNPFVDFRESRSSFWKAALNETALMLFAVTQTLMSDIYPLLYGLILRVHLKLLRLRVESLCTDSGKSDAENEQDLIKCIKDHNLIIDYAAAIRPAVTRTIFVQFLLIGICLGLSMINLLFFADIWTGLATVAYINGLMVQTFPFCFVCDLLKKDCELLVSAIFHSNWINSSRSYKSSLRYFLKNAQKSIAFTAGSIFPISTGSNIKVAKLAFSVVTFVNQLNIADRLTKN
T1 sequence (Q9VNB5 1-486 partner): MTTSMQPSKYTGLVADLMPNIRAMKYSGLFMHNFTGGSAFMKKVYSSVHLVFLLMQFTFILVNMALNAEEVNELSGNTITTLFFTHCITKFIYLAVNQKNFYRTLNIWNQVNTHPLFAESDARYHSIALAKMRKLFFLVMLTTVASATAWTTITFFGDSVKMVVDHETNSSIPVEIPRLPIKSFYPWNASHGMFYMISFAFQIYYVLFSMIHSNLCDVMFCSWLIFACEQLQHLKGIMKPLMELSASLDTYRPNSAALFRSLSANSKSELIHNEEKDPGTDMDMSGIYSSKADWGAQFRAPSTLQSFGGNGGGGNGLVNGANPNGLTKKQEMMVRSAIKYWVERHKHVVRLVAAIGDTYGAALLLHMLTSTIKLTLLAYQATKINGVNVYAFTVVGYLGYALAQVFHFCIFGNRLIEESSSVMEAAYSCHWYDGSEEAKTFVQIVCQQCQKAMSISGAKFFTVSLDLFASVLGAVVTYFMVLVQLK
Description: Twelve thousand to 18,000 cells were plated into each well of a black wall, transparent bottom 384-well microplate (Greiner) 48 h or 72 h before the measurements and were simultaneously treated with 1 μg/mL doxycycline. […] The plate has 24 columns, thus we could record responses in up to eight different cell lines in each plate. On the day of the experiment, the growth medium was replaced with 20 µL assay buffer/well (140 mM NaCl, 5 mM KCl, 2 mM CaCl2, 1 mM MgCl2, 5 mM HEPES-Na, 20 mM glucose, pH 7.3, 340 mOsm). […] Baseline fluorescence (F0) was recorded for 5 s, after which 7 µL VOC buffer (140 mM NaCl, 5 mM KCl, 2 mM CaCl2, 1 mM MgCl2, 5 mM HEPES-Na, 31 mM glucose, 0.1% DMSO, pH 7.3, 340 mOsm) was injected into each well in one row and the fluorescence response was recorded for an additional 30 s, at a rate of one read/sec. VOC solutions (VOC buffer with 4× concentration of the final measured VOC concentration, 9 µL/well was injected) were measured on the same wells in a second round with the same protocol. Each individual concentration of a specific VOC sample was recorded in three wells for the same cell line on the same microplate. The raw data were exported in xls file format, F0 and FMAX values, and the fluorescence intensity changes (∆F) were calculated in Excel (Microsoft) (Supplementary file Data summary.xlsx) using the following equation: ΔF=FMAX-F0/F0 (see also Fig. 1C). On each plate, we recorded the response of each cell line to 50 µM VUAA1. The average of these ∆F values of each cell line were used to calculate the VUAA1-normalized values for the rest of the plate, by dividing VOC response ∆F values by the average VUAA1 response ∆F value of the corresponding OR cell line. Each VOC-OR combination was measured three times as tec The recorded FMAX, F0, ∆F, VUAA1-normalized ∆F values, as well as the OR name, the name of the tested sample, and the final concentration for each well were copied into supplementary file Data summary.xlsx, that was used to summarize all the plates recorded. Here, the averages of the measurements were calculated for each receptor-VOC-concentration combination. […] Each VOC was measured at 1, 10, and 100 µM final concentration on each receptor. VUAA1-normalized response was calculated as described in methods.

[3] = system: OR13a; settings: insect cell line stably expressing OR13a; read-out: EC50 of concentration-dependent Ca2+ signals; cited from earlier work
[4] = system: OR13a; settings: Bactrocera dorsalis OR13a in HEK293 cells; read-out: EC50 in fluorescent measurements; cited from earlier work
[5] = system: OR13a; settings: Bactrocera dorsalis OR13a; read-out: EC50 in electrophysiology; cited from earlier work

Compound | activity at 1 µM [2] | activity at 10 µM [2] | activity at 100 µM [2] | further results
CCCCCC(C)=O [2-heptanone] | – | – | – | EC50 ([1]; OR85b in Xenopus oocytes, Nichols and Luetje, read-out: EC50): 70 ± 20 µM; EC50 ([1]; OR85b, Misawa et al., read-out: average EC50): 45.6 µM
C=C1CC[C@@]23C[C@@H]1C(C)(C)[C@@H]2CC[C@H]3C [(+)-beta-cedrene] | 8.55% | 5.99% | 6.08% | –
C=C(C)[C@H]1CC=C(C)CC1 [(R)-(+)-limonene] | 0% | 0% | 0% | –
CC1=CCC[C@@]2(C)[C@@H]3CC[C@]12CC3(C)C [(−)-α-neoclovene] | 14.8% | – | – | –
C=CC(O)CCCCC (stereo not drawn) [1-octen-3-ol] | – | – | – | EC50 [3]: 4.33 µM; EC50 [4]: 11.3 µM; EC50 [5]: 1.27 µM
C=C(C)C1CCC2(C)OC2C1 (single isomer, unassigned; (+)) [(+)-limonene oxide] | 0% | 0% | 0% | –
C=C1[C@H]2CC[C@@H]3[C@H]2C(C)(C)CCC[C@]13C [(+)-longifolene] | 0% | 12.6% | 0% | –
